How the values were obtained:
crabgrass = test: Test B pre/postemergence crabgrass; format: in vivo, Digitaria sanguinalis
Procedure, shortened: (§1)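 Response is a visual 0-to-10 score relative to untreated plants, where 0 means no effect and 10 means complete control, taken twelve to sixteen days after application. Treatments went onto soil at planting and onto foliage of 1- to 4-leaf plants, using a surfactant-containing non-phytotoxic solvent.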

duck salad = test: Test B flood test duck salad; format: in vivo, Heteranthera limosa
Procedure, shortened: (§2)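 Each value is a visual injury score relative to controls, with 10 meaning complete control and 0 no effect. Evaluation took place twelve to sixteen days after the 2-leaf-stage plants were treated and kept in the greenhouse.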

wild oat = test: Test B pre/postemergence wild oat; format: in vivo, Avena fatua
Procedure, shortened: as §1

corn = test: Test B pre/postemergence corn; format: in vivo, Zea mays
Procedure, shortened: as §1

soybean = test: Test B pre/postemergence soybean; format: in vivo, Glycine max
Procedure, shortened: as §1

morningglory = test: Test B pre/postemergence morningglory; format: in vivo, Ipomoea hederacea
Procedure, shortened: as §1

rape = test: Test B pre/postemergence rape; format: in vivo, Brassica napus
Procedure, shortened: as §1

velvetleaf = test: Test B pre/postemergence velvetleaf; format: in vivo, Abutilon theophrasti
Procedure, shortened: as §1

sugar beet = test: Test B pre/postemergence sugar beet; format: in vivo, Beta vulgaris
Procedure, shortened: as §1

smallflower flatsedge = test: Test B flood test smallflower flatsedge; format: in vivo, Cyperus difformis
Procedure, shortened: as §2

wheat = test: Test B pre/postemergence wheat; format: in vivo, Triticum aestivum
Procedure, shortened: as §1

rice = test: Test B flood test rice; format: in vivo, Oryza sativa
Procedure, shortened: as §2

giant foxtail = test: Test B pre/postemergence giant foxtail; format: in vivo, Setaria faberii
Procedure, shortened: as §1

cocklebur = test: Test B pre/postemergence cocklebur; format: in vivo, Xanthium strumarium
Procedure, shortened: as §1

purple nutsedge = test: Test B pre/postemergence purple nutsedge; format: in vivo, Cyperus rotundus
Procedure, shortened: as §1

pigweed = test: Test B pre/postemergence pigweed; format: in vivo, Amaranthus retroflexus
Procedure, shortened: as §1

[1] = Preemergence, Rate 62 g/ha, scale of 0 to 10 where 0 is no effect and 10 is complete control
[2] = Preemergence, Rate 125 g/ha, 0 is no effect, 10 is complete control
[3] = Preemergence, Rate 250 g/ha, scale 0 to 10, 0 is no effect, 10 is complete control
[4] = Preemergence, Rate 500 g/ha, scale 0 to 10 (0 no effect, 10 complete control)
[5] = Rate 62 g/ha, Postemergence, scale of 0 to 10 where 0 is no effect and 10 is complete control
[6] = Rate 125 g/ha, Postemergence, scale 0 to 10
[7] = Rate 500 g/ha, Postemergence, scale 0 to 10
[8] = Rate 62 g/ha, headed Pre-emergence (flood test species), scale 0 to 10 (0 no effect, 10 complete control)
[9] = Rate 125 g/ha, Pre-emergence, flood test species, scale 0 to 10 where 0 is no effect and 10 is complete control
[10] = Rate 250 g/ha, Pre-emergence, flood-test species, scale 0 to 10, 0 is no effect, 10 is complete control
[11] = Rate 500 g/ha, headed Pre-emergence (flood test species), scale 0 to 10 (0 no effect, 10 complete control)

CCN(C(=O)n1oc(=O)n(C(C)C)c1=O)c1nncs1 [Compound 190]
0: Crabgrass plant response rating (crabgrass; [1]) | Crabgrass plant response rating (0 to 10 scale) (crabgrass; [2]) | Crabgrass plant response rating (crabgrass; [3]) | Crabgrass plant response rating (crabgrass; [4]) | Crabgrass plant response rating (crabgrass; [5]) | Crabgrass plant response rating (crabgrass; [6]) | Plant response rating (0 to 10; 0 is no effect, 10 is complete control), Crabgrass (crabgrass; Rate 250 g/ha, Postemergence) | Crabgrass plant response rating (crabgrass; [7]) | Ducksalad plant response rating (duck salad; [8]) | Ducksalad plant response rating (duck salad; [9]) | Ducksalad plant response rating (duck salad; [10]) | Plant response rating, Ducksalad (duck salad; [11]) | Wild oats plant response rating (wild oat; [1]) | Wild oats plant response rating (wild oat; [3]) | Wild oats plant response rating (wild oat; [4]) | Wild oats plant response rating (wild oat; [5]) | Wild oats plant response rating (wild oat; [6]) | Plant response rating (0 to 10; 0 is no effect, 10 is complete control), Wild oats (wild oat; Rate 250 g/ha, Postemergence) | Corn plant response rating (corn; [1]) | Corn plant response rating (0 to 10 scale) (corn; [2]) | Corn plant response rating (corn; [3]) | Corn plant response rating (corn; [4]) | Corn plant response rating (corn; [5]) | Corn plant response rating (corn; [6]) | Plant response rating (0 to 10; 0 is no effect, 10 is complete control), Corn (corn; Rate 250 g/ha, Postemergence) | Corn plant response rating (corn; [7]) | Soybean plant response rating (soybean; [1]) | Soybean plant response rating (0 to 10 scale) (soybean; [2]) | Soybean plant response rating (soybean; [3]) | Soybean plant response rating (soybean; [4]) | Soybean plant response rating (soybean; [5]) | Soybean plant response rating (soybean; [6]) | Plant response rating (0 to 10; 0 is no effect, 10 is complete control), Soybean (soybean; Rate 250 g/ha, Postemergence) | Soybean plant response rating (soybean; [7]) | Morningglory plant response rating (morningglory; [1]) | Morningglory plant response rating (0 to 10 scale) (morningglory; [2]) | Morningglory plant response rating (morningglory; [3]) | Morningglory plant response rating (morningglory; [4]) | Morningglory plant response rating (morningglory; [5]) | Morningglory plant response rating (morningglory; [6]) | Plant response rating (0 to 10; 0 is no effect, 10 is complete control), Morningglory (morningglory; Rate 250 g/ha, Postemergence) | Morningglory plant response rating (morningglory; [7]) | Rape plant response rating (rape; [1]) | Rape plant response rating (0 to 10 scale) (rape; [2]) | Rape plant response rating (rape; [3]) | Rape plant response rating (rape; [4]) | Rape plant response rating (rape; [5]) | Rape plant response rating (rape; [6]) | Plant response rating (0 to 10; 0 is no effect, 10 is complete control), Rape (rape; Rate 250 g/ha, Postemergence) | Rape plant response rating (rape; [7]) | Velvetleaf plant response rating (velvetleaf; [1]) | Velvetleaf plant response rating (velvetleaf; [3]) | Velvetleaf plant response rating (velvetleaf; [4]) | Velvetleaf plant response rating (velvetleaf; [5]) | Velvetleaf plant response rating (velvetleaf; [6]) | Plant response rating (0 to 10; 0 is no effect, 10 is complete control), Velvetleaf (velvetleaf; Rate 250 g/ha, Postemergence) | Sugarbeets plant response rating (sugar beet; [1]) | Sugarbeets plant response rating (0 to 10 scale) (sugar beet; [2]) | Sugarbeets plant response rating (sugar beet; [3]) | Sugarbeets plant response rating (sugar beet; [4]) | Sugarbeets plant response rating (sugar beet; [5]) | Sugarbeets plant response rating (sugar beet; [6]) | Plant response rating (0 to 10; 0 is no effect, 10 is complete control), Sugarbeets (sugar beet; Rate 250 g/ha, Postemergence) | Sugarbeets plant response rating (sugar beet; [7]) | S. Flatsedge plant response rating (smallflower flatsedge; [8]) | S. Flatsedge plant response rating (smallflower flatsedge; [9]) | S. Flatsedge plant response rating (smallflower flatsedge; [10]) | S. Flatsedge plant response rating (smallflower flatsedge; Rate 500 g/ha, Pre-emergence, flood test species, scale 0 to 10 (0 no effect, 10 complete control)) | Wheat plant response rating (wheat; [1]) | Wheat plant response rating (wheat; [3]) | Wheat plant response rating (wheat; [4]) | Wheat plant response rating (wheat; [5]) | Wheat plant response rating (wheat; [6]) | Plant response rating (0 to 10; 0 is no effect, 10 is complete control), Wheat (wheat; Rate 250 g/ha, Postemergence) | Rice plant response rating (rice; [8]) | Rice plant response rating (rice; [9]) | Rice plant response rating (rice; [10]) | Plant response rating, Rice (rice; [11]) | Giant foxtail plant response rating (giant foxtail; [1]) | Giant foxtail plant response rating (0 to 10 scale) (giant foxtail; [2]) | Giant foxtail plant response rating (giant foxtail; [3]) | Giant foxtail plant response rating (giant foxtail; [4]) | Giant foxtail plant response rating (giant foxtail; [5]) | Giant foxtail plant response rating (giant foxtail; [6]) | Plant response rating (0 to 10; 0 is no effect, 10 is complete control), Giant foxtail (giant foxtail; Rate 250 g/ha, Postemergence) | Giant foxtail plant response rating (giant foxtail; [7]) | Cocklebur plant response rating (cocklebur; [1]) | Cocklebur plant response rating (0 to 10 scale) (cocklebur; [2]) | Cocklebur plant response rating (cocklebur; [3]) | Cocklebur plant response rating (cocklebur; [4]) | Cocklebur plant response rating (cocklebur; [5]) | Cocklebur plant response rating (cocklebur; [6]) | Plant response rating (0 to 10; 0 is no effect, 10 is complete control), Cocklebur (cocklebur; Rate 250 g/ha, Postemergence) | Cocklebur plant response rating (cocklebur; [7]) | Nutsedge plant response rating (purple nutsedge; [1]) | Nutsedge plant response rating (purple nutsedge; [3]) | Nutsedge plant response rating (purple nutsedge; [4]) | Nutsedge plant response rating (purple nutsedge; [5]) | Nutsedge plant response rating (purple nutsedge; [6]) | Plant response rating (0 to 10; 0 is no effect, 10 is complete control), Nutsedge (purple nutsedge; Rate 250 g/ha, Postemergence) | Nutsedge plant response rating (purple nutsedge; [7]) | Redroot pigweed plant response rating (pigweed; [1]) | Redroot pigweed plant response rating (0 to 10 scale) (pigweed; [2]) | Redroot pigweed plant response rating (pigweed; [3]) | Redroot pigweed plant response rating (pigweed; [4]) | Redroot pigweed plant response rating (pigweed; [5]) | Redroot pigweed plant response rating (pigweed; [6]) | Plant response rating (0 to 10; 0 is no effect, 10 is complete control), Redroot pigweed (pigweed; Rate 250 g/ha, Postemergence) | Redroot pigweed plant response rating (pigweed; [7])

— patent US6737383B1, “Herbicidal oxadiazolidines” (priority 1999, dated 2004)
